Legend:
[1] = tested on: CPC-N (Small Cell Lung Carcinoma); assay: combination Emax (second highest fraction inhibited in the dose matrix, 72 h); higher = more inhibition; extreme values may be limits of the assay
Summary of the method: (§1)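 Cell lines grown in DMEM/F12 or RPMI with 10% FBS were plated in 1536-well plates and held 24 hours at 37°C, 5% CO2 before 72 hours of exposure to two-drug dose matrices, with DMSO typically at 0.2%. CellTiter-Glo 2.0 luminescence gave viability, which was converted to inhibition. Vehicle wells were set to 0 and blank wells to 1. Combination Emax is the second-highest inhibition in the matrix, and Bliss excess is the observed combination effect minus the expected EA + EB − EA·EB, where EA and EB are the single-agent effects.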

[2] = tested on: SCC-4 (Oral Cavity Carcinoma); assay: as above
Summary of the method: as §1

[3] = tested on: SK-CO-1 (Colorectal Carcinoma); assay: as above
Summary of the method: as §1

[4] = tested on: IA-LM (Non-Small Cell Lung Carcinoma); assay: Bliss excess, mean over the matrix (fraction); higher = more synergy
Summary of the method: as §1

[5] = tested on: MM1S (Plasma Cell Myeloma); assay: as above
Summary of the method: as §1

[6] = tested on: NMC-G1 (Low Grade Glioma); assay: as above
Summary of the method: as §1

[7] = tested on: ZR-75-30 (Breast Carcinoma); assay: as above
Summary of the method: as §1

[8] = tested on: SNU-407 (Colorectal Carcinoma); assay: as above
Summary of the method: as §1

[9] = tested on: LS-1034 (Colorectal Carcinoma); assay: as above
Summary of the method: as §1

NCI-H226 (Mesothelioma) = assay: as above
Summary of the method: as §1

[10] = tested on: DBTRG-05MG (Glioblastoma); assay: as above
Summary of the method: as §1

[11] = tested on: CL-11 (Colorectal Carcinoma); assay: as above
Summary of the method: as §1

[12] = tested on: SAT (Head and Neck Carcinoma); assay: as above
Summary of the method: as §1

ES6 (Ewing's Sarcoma) = assay: as above
Summary of the method: as §1

[13] = tested on: SiHa (Cervical Carcinoma); assay: as above
Summary of the method: as §1

[14] = tested on: RCC-JW (Kidney Carcinoma); assay: as above
Summary of the method: as §1

[15] = tested on: SK-CO-1 (Colorectal Carcinoma); assay: as above
Summary of the method: as §1

[16] = tested on: P32-ISH (Burkitt's Lymphoma); assay: as above
Summary of the method: as §1

[17] = tested on: SNU-423 (Hepatocellular Carcinoma); assay: as above
Summary of the method: as §1

UACC-257 (Melanoma) = assay: as above
Summary of the method: as §1
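Wherever Bliss excess, mean over the matrix is given: after 72 h of two-drug dosing.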

| Structure (SMILES) | combination Emax [1] | combination Emax [2] | combination Emax [3] | Bliss excess [4] | Bliss excess [5] | Bliss excess [6] | Bliss excess [7] | Bliss excess [8] | Bliss excess [9] | Bliss excess (NCI-H226 (Mesothelioma)) | Bliss excess [10] | Bliss excess [11] | Bliss excess [12] | Bliss excess (ES6 (Ewing's Sarcoma)) | Bliss excess [13] | Bliss excess [14] | Bliss excess [15] | Bliss excess [16] | Bliss excess [17] | Bliss excess (UACC-257 (Melanoma)) |
| --- | --- | --- | --- | --- | --- | --- | --- | --- | --- | --- | --- | --- | --- | --- | --- | --- | --- | --- | --- | --- |
| CN(CCO)CC[C@H](CSc1ccccc1)Nc1ccc(S(=O)(=O)NC(=O)c2ccc(N3CCC([C@@H](O)c4ccccc4-c4ccc(Cl)cc4)CC3)cc2)cc1S(=O)(=O)C(F)(F)F [AZD4320] + C=CCn1c(=O)c2cnc(Nc3ccc(N4CCN(C)CC4)cc3)nc2n1-c1cccc(C(C)(C)O)n1 [AZD1775] (first compound max 1 µM, partner max 1 µM) | 0.997 | 0.872 | 0.867 | 0.0161 | 0.0981 | 0.0422 | -0.0083 | -0.0677 | 0.0344 | -0.025 | 0.0555 | -0.0201 | -0.0251 | 0.0586 | -0.0358 | 0.0546 | -0.0412 | 0.107 | -0.0129 | -0.0419 |
| CN(CCO)CC[C@H](CSc1ccccc1)Nc1ccc(S(=O)(=O)NC(=O)c2ccc(N3CCC([C@@H](O)c4ccccc4-c4ccc(Cl)cc4)CC3)cc2)cc1S(=O)(=O)C(F)(F)F [AZD4320] + CCN(CCO)CCCOc1ccc2c(Nc3cc(CC(=O)Nc4cccc(F)c4)[nH]n3)ncnc2c1 [AZD2811] (first compound max 1 µM, 7x7, partner max 1 µM) | 0.971 | 0.861 | 0.889 | 0.0119 | 0.118 | 0.0047 | -0.0024 | -0.102 | -0.0337 | -0.0238 | 0.0363 | -0.0391 | 0.0112 | -0.0229 | -0.0219 | -0.0023 | 0.0178 | -0.0231 | -0.0325 | -0.0022 |
| CN(CCO)CC[C@H](CSc1ccccc1)Nc1ccc(S(=O)(=O)NC(=O)c2ccc(N3CCC([C@@H](O)c4ccccc4-c4ccc(Cl)cc4)CC3)cc2)cc1S(=O)(=O)C(F)(F)F [AZD4320] + CN(C)CCCOc1ccc(-c2ccc3ncc4c(c3c2)n(C2CCOCC2)c(=O)n4C)cn1 [AZD0156] (first compound max 1 µM, 7x7, partner max 1 µM) | 0.967 | 0.612 | 0.712 | -0.0239 | 0.0753 | -0.0362 | -0.038 | -0.0555 | -0.0386 | -0.0589 | -0.0497 | -0.0441 | -0.0214 | -0.0314 | -0.0537 | -0.0301 | -0.0758 | 0.0018 | -0.0727 | -0.0323 |
| CN(CCO)CC[C@H](CSc1ccccc1)Nc1ccc(S(=O)(=O)NC(=O)c2ccc(N3CCC([C@@H](O)c4ccccc4-c4ccc(Cl)cc4)CC3)cc2)cc1S(=O)(=O)C(F)(F)F [AZD4320] + C[C@@H](Nc1cc(F)cc(F)c1)c1cc(C(=O)N(C)C)cc2c(=O)cc(N3CCOCC3)oc12 [AZD8186] (first compound max 1 µM, 7x7, partner max 3 µM) | 0.95 | 0.765 | 0.917 | 0.0085 | 0.0538 | 0.0254 | -0.0251 | -0.0167 | -0.0026 | -0.015 | 0.02 | -0.0011 | -0.0231 | 0.0029 | -0.0165 | 0.0478 | -0.051 | 0.0526 | -0.0628 | 0.0488 |
| CN(CCO)CC[C@H](CSc1ccccc1)Nc1ccc(S(=O)(=O)NC(=O)c2ccc(N3CCC([C@@H](O)c4ccccc4-c4ccc(Cl)cc4)CC3)cc2)cc1S(=O)(=O)C(F)(F)F [AZD4320] + Cc1cc2ncnn2cc1Nc1ncc2c(n1)n(C1CCOCC1)c(=O)n2C [AZD7648] (first compound max 1 µM, 7x7, partner max 10 µM) | 0.984 | 0.737 | 0.646 | -0.0482 | 0.0657 | -0.0452 | -0.0359 | 0.0313 | -0.0403 | -0.0674 | -0.0015 | -0.033 | -0.0621 | -0.0494 | -0.0385 | -0.0476 | -0.0224 | 0.0076 | -0.0311 | -0.0351 |
| CN(CCO)CC[C@H](CSc1ccccc1)Nc1ccc(S(=O)(=O)NC(=O)c2ccc(N3CCC([C@@H](O)c4ccccc4-c4ccc(Cl)cc4)CC3)cc2)cc1S(=O)(=O)C(F)(F)F [AZD4320] + Cn1cnc2c(F)c(Nc3ccc(Br)cc3Cl)c(C(=O)NOCCO)cc21 [Selumetinib] (first compound max 1 µM, 7x7, partner max 3 µM) | 0.955 | 0.775 | 0.941 | 0.0652 | 0.0799 | -0.0624 | -0.06 | -0.0231 | -0.0454 | -0.0248 | 0.0074 | 0.0489 | 0.0523 | -0.0326 | -0.0315 | -0.0079 | 0.0154 | 0.044 | -0.0228 | 0.0815 |
| Cc1c2c(nn1C)CSCc1cc(n(C)n1)CSc1cc(c3ccccc3c1)OCCCc1c(C(=O)O)n(C)c3c-2c(Cl)ccc13 [AZD5991] + C=CCn1c(=O)c2cnc(Nc3ccc(N4CCN(C)CC4)cc3)nc2n1-c1cccc(C(C)(C)O)n1 [AZD1775] (first compound max 1 µM, partner max 1 µM) | 0.967 | 0.715 | 0.517 | -0.0011 | 0.0547 | -0.0012 | 0.0376 | -0.0183 | -0.098 | 0.018 | 0.005 | -0.0112 | 0.0173 | 0.0814 | -0.0646 | 0.0418 | -0.0425 | -0.0228 | -0.0976 | 0.0163 |
| Cc1c2c(nn1C)CSCc1cc(n(C)n1)CSc1cc(c3ccccc3c1)OCCCc1c(C(=O)O)n(C)c3c-2c(Cl)ccc13 [AZD5991] + CC1(C)CCC(CN2CCN(c3ccc(C(=O)NS(=O)(=O)c4ccc(NCC5CCOCC5)c([N+](=O)[O-])c4)c(Oc4cnc5[nH]ccc5c4)c3)CC2)=C(c2ccc(Cl)cc2)C1 [Venetoclax] (first compound max 1 µM, 7x7, partner max 1 µM) | 0.289 | 0.345 | 0.16 | -0.007 | 0.0483 | -0.03 | 0.0527 | 0.0014 | -0.0159 | -0.0582 | -0.0233 | -0.0254 | 0.0101 | -0.0065 | -0.129 | -0.0335 | -0.0378 | 0.0054 | -0.0736 | -0.0485 |
| Cc1c2c(nn1C)CSCc1cc(n(C)n1)CSc1cc(c3ccccc3c1)OCCCc1c(C(=O)O)n(C)c3c-2c(Cl)ccc13 [AZD5991] + CN(C)CCCOc1ccc(-c2ccc3ncc4c(c3c2)n(C2CCOCC2)c(=O)n4C)cn1 [AZD0156] (first compound max 1 µM, 7x7, partner max 1 µM) | 0.314 | 0.382 | 0.363 | -0.0333 | 0.0391 | -0.0387 | -0.0128 | -0.463 | -0.0032 | 0.0125 | 0.0252 | -0.0081 | -0.0186 | -0.0113 | 0.0341 | -0.0001 | -0.0182 | 0.0083 | -0.0259 | -0.0064 |
| Cc1c2c(nn1C)CSCc1cc(n(C)n1)CSc1cc(c3ccccc3c1)OCCCc1c(C(=O)O)n(C)c3c-2c(Cl)ccc13 [AZD5991] + C[C@@H]1COCCN1C2=NC(=NC(=C2)C3(CC3)[S@](=N)(=O)C)C4=C5C=CNC5=NC=C4 [AZD6738] (first compound max 1 µM, 7x7, partner max 10 µM) | 0.874 | 0.755 | 0.615 | 0.0255 | 0.102 | 0.0188 | 0.0285 | 0.0148 | -0.0346 | 0.0298 | 0.0578 | 0.0322 | 0.0466 | 0.0289 | 0.0122 | 0.0192 | -0.0164 | 0.0231 | 0.0026 | 0.0278 |
| Cc1c2c(nn1C)CSCc1cc(n(C)n1)CSc1cc(c3ccccc3c1)OCCCc1c(C(=O)O)n(C)c3c-2c(Cl)ccc13 [AZD5991] + C[C@@H](Nc1cc(F)cc(F)c1)c1cc(C(=O)N(C)C)cc2c(=O)cc(N3CCOCC3)oc12 [AZD8186] (first compound max 1 µM, 7x7, partner max 3 µM) | 0.294 | 0.598 | 0.283 | -0.0274 | 0.0187 | -0.059 | 0.0179 | -0.0139 | -0.0142 | -0.0268 | 0.0008 | -0.0377 | -0.0731 | 0.0045 | 0.0044 | 0.0126 | -0.0398 | 0.0273 | -0.0326 | -0.0234 |
